Reference: patent publication US12599136B2, “Substituted isophthalic acid diamides and their use as herbicides” (Bayer Aktiengesellschaft, priority 2020, dated 2026)

Experiments:
Assay type in all cases: in vivo
Abutilon theophrasti [1] = experiment: Pre-emergence herbicidal action against ABUTH; conditions: Dosage column 320 g/ha (heading prints 3200 g/ha); visual score after 3 weeks vs untreated controls
Summary of the method: (§1)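 Greenhouse pots of sandy loam held seeds covered with soil, onto which the compound was applied before emergence. An aqueous suspension or emulsion of WP or EC was used at 600 to 800 l/ha with 0.2% wetting agent. Percent damage was judged visually at 3 weeks.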

Setaria viridis [2] = experiment: Pre-emergence herbicidal action against SETVI
Summary of the method: as §1

Cyperus esculentus [3] = experiment: Post-emergence herbicidal action against CYPES; conditions: visual assessment about 3 weeks after treatment
Summary of the method: (§2)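 A WP or EC formulation diluted in water with 0.2% wetting agent was sprayed at 600 to 800 l/ha onto one-leaf-stage plants grown in sandy loam. About 3 weeks later, action was rated visually in percent, 100% being dead plants.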

Hordeum murinum [4] = experiment: Post-emergence herbicidal action against HORMU
Summary of the method: as §2

Veronica persica [5] = experiment: Post-emergence herbicidal action against VERPE; conditions: visual assessment about 3 weeks after treatment
Summary of the method: as §2

Pharbitis purpurea [6] = experiment: Pre-emergence herbicidal action against PHBPU; conditions: visual score after 3 weeks vs untreated controls
Summary of the method: as §1

Setaria viridis [7] = experiment: Post-emergence herbicidal action against SETVI; conditions: visual assessment about 3 weeks after treatment
Summary of the method: as §2

Avena fatua [8] = experiment: Post-emergence herbicidal action against AVEFA; conditions: visual assessment about 3 weeks after treatment
Summary of the method: as §2

Viola tricolor [9] = experiment: Post-emergence herbicidal action against VIOTR
Summary of the method: as §2

Alopecurus myosuroides [10] = experiment: Post-emergence herbicidal action against ALOMY
Summary of the method: as §2

Lolium rigidum [11] = experiment: Pre-emergence herbicidal action against LOLRI
Summary of the method: as §1

Abutilon theophrasti [12] = experiment: Post-emergence herbicidal action against ABUTH
Summary of the method: as §2

Avena fatua [13] = experiment: Pre-emergence herbicidal action against AVEFA; conditions: visual score after 3 weeks vs untreated controls
Summary of the method: as §1

Amaranthus retroflexus [14] = experiment: Pre-emergence herbicidal action against AMARE; conditions: visual score after 3 weeks vs untreated controls
Summary of the method: as §1

Hordeum murinum [15] = experiment: Pre-emergence herbicidal action against HORMU; conditions: visual score after 3 weeks vs untreated controls
Summary of the method: as §1

Lolium rigidum [16] = experiment: Post-emergence herbicidal action against LOLRI
Summary of the method: as §2

Matricaria inodora [17] = experiment: Pre-emergence herbicidal action against MATIN; conditions: visual score after 3 weeks vs untreated controls
Summary of the method: as §1

Veronica persica [18] = experiment: Pre-emergence herbicidal action against VERPE
Summary of the method: as §1

Stellaria media [19] = experiment: Pre-emergence herbicidal action against STEME
Summary of the method: as §1

Pharbitis purpurea [20] = experiment: Post-emergence herbicidal action against PHBPU; conditions: visual assessment about 3 weeks after treatment
Summary of the method: as §2

Echinochloa crus-galli [21] = experiment: Post-emergence herbicidal action against ECHCG; conditions: visual assessment about 3 weeks after treatment
Summary of the method: as §2

Polygonum convolvulus [22] = experiment: Post-emergence herbicidal action against POLCO; conditions: 80 g/ha, visual assessment about 3 weeks after treatment
Summary of the method: as §2

Matricaria inodora [23] = experiment: Post-emergence herbicidal action against MATIN; conditions: visual assessment about 3 weeks after treatment
Summary of the method: as §2

Cyperus esculentus [24] = experiment: Pre-emergence herbicidal action against CYPES; conditions: visual score after 3 weeks vs untreated controls
Summary of the method: as §1

Alopecurus myosuroides [25] = experiment: Pre-emergence herbicidal action against ALOMY; conditions: visual score after 3 weeks vs untreated controls
Summary of the method: as §1

Stellaria media [26] = experiment: Post-emergence herbicidal action against STEME; conditions: visual assessment about 3 weeks after treatment
Summary of the method: as §2

Echinochloa crus-galli [27] = experiment: Pre-emergence herbicidal action against ECHCG; conditions: visual score after 3 weeks vs untreated controls
Summary of the method: as §1

Polygonum convolvulus [28] = experiment: Pre-emergence herbicidal action against POLCO
Summary of the method: as §1

Amaranthus retroflexus [29] = experiment: Post-emergence herbicidal action against AMARE; conditions: visual assessment about 3 weeks after treatment
Summary of the method: as §2

Viola tricolor [30] = experiment: Pre-emergence herbicidal action against VIOTR
Summary of the method: as §1

CCN(C)C(=O)c1c(C(F)(F)F)ccc(C(=O)Nc2nnnn2C)c1Cl [Example 1-124]
Pre-emergence action against ABUTH (Abutilon theophrasti [1]): 90%
Pre-emergence action against SETVI (Setaria viridis [2]; 20 g/ha): 90%
Pre-emergence action against SETVI (Setaria viridis [2]; 80 g/ha): 100%
Pre-emergence action against SETVI (Setaria viridis [2]; 320 g/ha): 100%
Post-emergence action against CYPES in % (Cyperus esculentus [3]; 20 g/ha): 80%
Post-emergence action against CYPES in % (Cyperus esculentus [3]; 80 g/ha): 80%
Post-emergence action against HORMU in % (Hordeum murinum [4]; 5 g/ha): 80%
Post-emergence action against HORMU in % (Hordeum murinum [4]; 20 g/ha): 90%
Post-emergence action against HORMU in % (Hordeum murinum [4]; 80 g/ha): 100%
Post-emergence action against VERPE in % (Veronica persica [5]; 5 g/ha): 80%
Post-emergence action against VERPE in % (Veronica persica [5]; 20 g/ha): 80%
Post-emergence action against VERPE in % (Veronica persica [5]; 80 g/ha): 100%
Pre-emergence action against PHBPU (Pharbitis purpurea [6]; 80 g/ha): 80%
Pre-emergence action against PHBPU (Pharbitis purpurea [6]; 320 g/ha): 90%
Post-emergence action against SETVI in % (Setaria viridis [7]; 5 g/ha): 100%
Post-emergence action against SETVI in % (Setaria viridis [7]; 20 g/ha): 100%
Post-emergence action against SETVI in % (Setaria viridis [7]; 80 g/ha): 100%
Post-emergence action against AVEFA in % (Avena fatua [8]; 5 g/ha): 80%
Post-emergence action against AVEFA in % (Avena fatua [8]; 20 g/ha): 100%
Post-emergence action against AVEFA in % (Avena fatua [8]; 80 g/ha): 100%
Post-emergence action against VIOTR in % (Viola tricolor [9]; 5 g/ha): 100%
Post-emergence action against VIOTR in % (Viola tricolor [9]; 20 g/ha): 100%
Post-emergence action against VIOTR in % (Viola tricolor [9]; 80 g/ha): 100%
Post-emergence action against ALOMY (Alopecurus myosuroides [10]; 5 g/ha): 90%
Post-emergence action against ALOMY (Alopecurus myosuroides [10]; 20 g/ha): 100%
Post-emergence action against ALOMY (Alopecurus myosuroides [10]; 80 g/ha): 100%
Pre-emergence action against LOLRI (Lolium rigidum [11]; 80 g/ha): 80%
Pre-emergence action against LOLRI (Lolium rigidum [11]; 320 g/ha): 100%
Post-emergence action against ABUTH (Abutilon theophrasti [12]; 5 g/ha): 100%
Post-emergence action against ABUTH (Abutilon theophrasti [12]; 20 g/ha): 100%
Post-emergence action against ABUTH (Abutilon theophrasti [12]; 80 g/ha): 100%
Pre-emergence action against AVEFA (Avena fatua [13]; 80 g/ha): 80%
Pre-emergence action against AVEFA (Avena fatua [13]; 320 g/ha): 100%
Pre-emergence action against AMARE (Amaranthus retroflexus [14]; 20 g/ha): 90%
Pre-emergence action against AMARE (Amaranthus retroflexus [14]; 80 g/ha): 90%
Pre-emergence action against AMARE (Amaranthus retroflexus [14]; 320 g/ha): 100%
Pre-emergence action against HORMU (Hordeum murinum [15]; 80 g/ha): 90%
Pre-emergence action against HORMU (Hordeum murinum [15]; 320 g/ha): 90%
Post-emergence action against LOLRI in % (Lolium rigidum [16]; 20 g/ha): 90%
Post-emergence action against LOLRI in % (Lolium rigidum [16]; 80 g/ha): 100%
Pre-emergence action against MATIN (Matricaria inodora [17]; 20 g/ha): 80%
Pre-emergence action against MATIN (Matricaria inodora [17]; 80 g/ha): 90%
Pre-emergence action against MATIN (Matricaria inodora [17]; 320 g/ha): 100%
Pre-emergence action against VERPE (Veronica persica [18]; 80 g/ha): 80%
Pre-emergence action against VERPE (Veronica persica [18]; 320 g/ha): 100%
Pre-emergence action against STEME (Stellaria media [19]; 20 g/ha): 90%
Pre-emergence action against STEME (Stellaria media [19]; 80 g/ha): 90%
Pre-emergence action against STEME (Stellaria media [19]; 320 g/ha): 90%
Post-emergence action against PHBPU in % (Pharbitis purpurea [20]; 5 g/ha): 80%
Post-emergence action against PHBPU in % (Pharbitis purpurea [20]; 20 g/ha): 90%
Post-emergence action against PHBPU in % (Pharbitis purpurea [20]; 80 g/ha): 90%
Post-emergence action against ECHCG in % (Echinochloa crus-galli [21]; 5 g/ha): 100%
Post-emergence action against ECHCG in % (Echinochloa crus-galli [21]; 20 g/ha): 100%
Post-emergence action against ECHCG in % (Echinochloa crus-galli [21]; 80 g/ha): 100%
Post-emergence action against POLCO in % (Polygonum convolvulus [22]): 90%
Post-emergence action against MATIN in % (Matricaria inodora [23]; 20 g/ha): 100%
Post-emergence action against MATIN in % (Matricaria inodora [23]; 80 g/ha): 100%
Pre-emergence action against CYPES (Cyperus esculentus [24]; 80 g/ha): 80%
Pre-emergence action against CYPES (Cyperus esculentus [24]; 320 g/ha): 90%
Pre-emergence action against ALOMY (Alopecurus myosuroides [25]; 20 g/ha): 80%
Pre-emergence action against ALOMY (Alopecurus myosuroides [25]; 80 g/ha): 90%
Pre-emergence action against ALOMY (Alopecurus myosuroides [25]; 320 g/ha): 100%
Post-emergence action against STEME in % (Stellaria media [26]; 5 g/ha): 100%
Post-emergence action against STEME in % (Stellaria media [26]; 20 g/ha): 100%
Post-emergence action against STEME in % (Stellaria media [26]; 80 g/ha): 100%
Pre-emergence action against ECHCG (Echinochloa crus-galli [27]; 20 g/ha): 80%
Pre-emergence action against ECHCG (Echinochloa crus-galli [27]; 80 g/ha): 100%
Pre-emergence action against ECHCG (Echinochloa crus-galli [27]; 320 g/ha): 100%
Pre-emergence action against POLCO (Polygonum convolvulus [28]; 80 g/ha): 80%
Pre-emergence action against POLCO (Polygonum convolvulus [28]; 320 g/ha): 80%
Post-emergence action against AMARE in % (Amaranthus retroflexus [29]; 5 g/ha): 100%
Post-emergence action against AMARE in % (Amaranthus retroflexus [29]; 20 g/ha): 100%
Post-emergence action against AMARE in % (Amaranthus retroflexus [29]; 80 g/ha): 100%
Pre-emergence action against VIOTR (Viola tricolor [30]; 80 g/ha): 100%
Pre-emergence action against VIOTR (Viola tricolor [30]; 320 g/ha): 100%
